25 molecules from patent US11730720B2, “ALK5 inhibitors” (THERAVANCE BIOPHARMA R&D IP, LLC, priority 2018, dated 2023) can be followed below.

Assay [1] concerns the target T1, recombinant human ALK5 (TGF-βR1) protein (Homo sapiens, UniProt P36897).
T1 construct: purchased Life Technologies PR9075A
T1 sequence (P36897 34-503): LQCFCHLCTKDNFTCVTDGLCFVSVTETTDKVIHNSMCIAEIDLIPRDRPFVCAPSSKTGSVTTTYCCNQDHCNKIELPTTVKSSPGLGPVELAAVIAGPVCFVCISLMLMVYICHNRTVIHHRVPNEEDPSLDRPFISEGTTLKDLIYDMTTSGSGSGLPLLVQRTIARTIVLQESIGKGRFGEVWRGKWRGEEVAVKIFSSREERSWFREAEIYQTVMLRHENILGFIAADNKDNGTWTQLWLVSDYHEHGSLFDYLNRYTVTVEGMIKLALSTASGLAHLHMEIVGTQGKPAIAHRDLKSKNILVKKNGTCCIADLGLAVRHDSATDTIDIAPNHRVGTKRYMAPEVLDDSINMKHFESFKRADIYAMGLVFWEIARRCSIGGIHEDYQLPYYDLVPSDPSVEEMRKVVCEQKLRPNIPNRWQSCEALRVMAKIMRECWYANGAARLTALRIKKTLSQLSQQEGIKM
Briefly: Biochemical ALK5 (TGF-βR1) assay to measure pKi (LANCE Ultra ULight kinase assay). Particulars: apparent pKi, converted from pIC50 using the Cheng-Prusoff equation. An outline of the steps:
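TR-FRET kinase format: compound dose range 10 μM–25 pM equilibrated 60 min with human ALK5 and ULight-labelled topoisomerase 2α peptide in HEPES/MgCl2 buffer pH 7.5 with DTT. Reaction started with ATP (125 μM stock, 5× final), 60 min at 37° C, stopped with EDTA/Eu-anti-phospho antibody; pKi derived from pIC50 via Cheng-Prusoff.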

Assay [2] deals with TGF-β-stimulated SMAD3 phosphorylation in BEAS-2B cells. Briefly: Cellular ALK5 potency assay, inhibition of TGF-β stimulated pSMAD3 formation in BEAS-2B cells. In kind it is cell-based. The following applies: Homo sapiens, inhibition of TGF-β (10 ng/mL) stimulated pSMAD3 formation, 1 hour compound incubation, read-out: BEAS2B pIC50 (converted). An outline of the steps: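 Phospho-SMAD3 was quantified by AlphaLISA in lysates of human lung epithelial BEAS-2B cells. Compound was added 1 h (37 °C, HEPES/BSA-supplemented HBSS) before a 30 min challenge with 10 ng/mL TGF-β. Values are pIC50 relative to stimulated cells without compound.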

pKi: −log10 of the molar value.

For `COC(=O)[C@@H]1CN(c2cnc3ccc(-c4c[nH]nc4-c4cc(Cl)ccc4F)nc3c2)CCN1` [Compound 1-59, methyl (2S)-4-[6-[3-(5-chloro-2-fluoro-phenyl)-1H-pyrazol-4-yl]-1,5-naphthyridin-3-yl]piperazine-2-carboxylate], in assay [1], the pKi – broadly, the Ki on a negative log10 scale, so that one unit is a factor of ten – is 8.50 to 9.40. Moreover, the IC50 in assay [2] is 25.1 to 158 nM.
As to `CC(C)N1CCN(C(C)(C)CNc2cnc3ccc(-c4c[nH]nc4-c4cc(Cl)ccc4F)nc3c2)CC1` [Compound 1-5, 6-[3-(5-chloro-2-fluoro-phenyl)-1H-pyrazol-4-yl]-N-[2-(4-isopropylpiperazin-1-yl)-2-methyl-propyl]-1,5-naphthyridin-3-amine], the pKi in assay [1] was 7.50 to 8.40. Besides, in assay [2], the IC50 is 25.1 to 158 nM.
In the case of `CCOC(=O)CNCCn1cc(-c2cnc3ccc(-c4c[nH]nc4-c4cc(Cl)ccc4F)nc3c2)cn1` [Compound 1-127, ethyl 2-[2-[4-[6-[3-(5-chloro-2-fluoro-phenyl)-1H-pyrazol-4-yl]-1,5-naphthyridin-3-yl]pyrazol-1-yl]ethylamino]acetate], the pKi in assay [1] was no less than 10.50. Further, in assay [2], the IC50 was 200 to 1260 nM.
In the case of `Fc1ccc(Cl)cc1-c1[nH]cnc1-c1ccc2ncc(-c3cnn(C4CCCNC4)c3)cc2n1` (centres unmarked) [Compound 2-18, 2-[5-(5-chloro-2-fluoro-phenyl)-1H-imidazol-4-yl]-7-[1-(3-piperidyl)pyrazol-4-yl]-1,5-naphthyridine], the pKi in assay [1] is 9.50 to 10.40. For the same molecule, the IC50 in assay [2] is 25.1 to 158 nM.
With `Fc1ccccc1-c1n[nH]cc1-c1ccc2ncc(-c3cccnc3)cc2n1` [Compound 11-4, 2-[3-(2-fluorophenyl)-1H-pyrazol-4-yl]-7-(3-pyridyl)-1,5-naphthyridine], in assay [1], the pKi was 7.50 to 8.40. Moreover, the IC50 in assay [2] is 25.1 to 158 nM.
As to `Fc1ccc(Cl)cc1-c1n[nH]cc1-c1ccc2ncc(-c3[nH]nc4c3CCNC4)cc2n1` [Compound 1-121, 2-[3-(5-chloro-2-fluoro-phenyl)-1H-pyrazol-4-yl]-7-(4,5,6,7-tetrahydro-2H-pyrazolo[3,4-c]pyridin-3-yl)-1,5-naphthyridine], in assay [1], the pKi was 9.50 to 10.40. In assay [2], the IC50 is 25.1 to 158 nM.
Consider `COC(=O)c1cnc2ccc(-c3c(-c4cc(Cl)ccc4F)nnn3Cc3ccccc3)nc2c1` [Compound 4-2, methyl 6-[3-benzyl-5-(5-chloro-2-fluoro-phenyl)triazol-4-yl]-1,5-naphthyridine-3-carboxylate], for which the negative-log Ki (pKi) in assay [1] was 7.50 to 8.40. Further, in assay [2], the IC50 is 200 to 1260 nM.
On the same counts, the results for `CNCCn1cc(-c2cnc3ccc(-c4c[nH]nc4-c4cc(O)ccc4C)nc3c2)cn1` [Compound 13-1, 4-methyl-3-(4-(7-(1-(2-(methylamino)ethyl)-1H-pyrazol-4-yl)-1,5-naphthyridin-2-yl)-1H-pyrazol-3-yl)phenol] are 8.50 to 9.40 and 200 to 1260 nM.
Turning to `CNCCn1cc(-c2cnc3ccc(-c4nc[nH]c4-c4ccc(F)c(F)c4)nc3c2)cn1` [Compound 9-3, 2-(4-(6-(5-(3,4-difluorophenyl)-1H-imidazol-4-yl)-1,5-naphthyridin-3-yl)-1H-pyrazol-1-yl)-N-methylethan-1-amine], in assay [1], the pKi is no less than 10.50. The IC50 in assay [2] is no more than 20 nM.
For `CN(C)C1CCN(c2cnc3ccc(-c4nc[nH]c4-c4cc(Cl)ccc4F)nc3c2)C1` (racemic) [Compound 2-11, rac-(3S)-1-(6-[5-(5-chloro-2-fluoro-phenyl)-1H-imidazol-4-yl]-1,5-naphthyridin-3-yl]-N,N-dimethyl-pyrrolidin-3-amine], the pKi in assay [1] is 9.50 to 10.40. In assay [2], the IC50 was no more than 20 nM.
`Fc1ccc(Cl)cc1-c1n[nH]cc1-c1ccc2ncc(NCC3CCN3)cc2n1` (centres unmarked) [Compound 1-17, N-(azetidin-2-ylmethyl)-6-[3-(5-chloro-2-fluoro-phenyl)-1H-pyrazol-4-yl]-1,5-naphthyridin-3-amine]: the pKi in assay [1] is 9.50 to 10.40. Besides, in assay [2], the IC50 was 25.1 to 158 nM.
On the same counts, the results for `Fc1ccc(Cl)cc1-c1[nH]cnc1-c1ccc2ncc(-c3cc4n(n3)CCNC4)cc2n1` [Compound 2-21, 2-(5-(5-chloro-2-fluorophenyl)-1H-imidazol-4-yl)-7-(4,5,6,7-tetrahydropyrazolo[1,5-a]pyrazin-2-yl)-1,5-naphthyridine] are 9.50 to 10.40 and 25.1 to 158 nM.
As to `Fc1ccc(Cl)cc1-c1nc2ccccn2c1-c1ccc2ncc(N3CCNCC3)cc2n1` [Compound 3-2, 2-(2-(5-chloro-2-fluorophenyl)imidazo[1,2-a]pyridin-3-yl)-7-(piperazin-1-yl)-1,5-naphthyridine], the pKi in assay [1] is 9.50 to 10.40. For the same molecule, in assay [2], the IC50 was 200 to 1260 nM.
As to `Fc1ccc(-c2n[nH]cc2-c2ccc3ncc(N4CCNCC4)cc3n2)cc1F` [Compound 8-4, 2-[3-(3,4-difluorophenyl)-1H-pyrazol-4-yl]-7-piperazin-1-yl-1,5-naphthyridine], the pKi in assay [1] is 7.50 to 8.40. The IC50 in assay [2] was 25.1 to 158 nM.
On the same counts, the results for `Fc1ccc(Cl)cc1-c1n[nH]cc1-c1ccc2ncc(N3CCn4nc(Br)nc4C3)cc2n1` [Compound 1-48, 7-(2-bromo-6,8-dihydro-5H-[1,2,4]triazolo[1,5-a]pyrazin-7-yl)-2-[3-(5-chloro-2-fluoro-phenyl)-1H-pyrazol-4-yl]-1,5-naphthyridine] are 8.50 to 9.40 and no more than 20 nM.
On to `Fc1ccc(Cl)cc1-c1[nH]cnc1-c1ccc2ncc(-c3cnc4n3CCN4)cc2c1` [Compound 17-9, 6-(5-(5-chloro-2-fluorophenyl)-1H-imidazol-4-yl)-3-(2,3-dihydro-1H-imidazo[1,2-a]imidazol-5-yl)quinoline], for which, in assay [1], the pKi is 9.50 to 10.40. For the same molecule, the IC50 in assay [2] was 25.1 to 158 nM.
In the case of `CC(C)NCCN1CCN(c2cnc3ccc(-c4c[nH]nc4-c4cc(Cl)ccc4F)nc3c2)CC1` [Compound 1-76, N-[2-[4-[6-[3-(5-chloro-2-fluoro-phenyl)-1H-pyrazol-4-yl]-1,5-naphthyridin-3-yl]piperazin-1-yl]ethyl]propan-2-amine], the pKi in assay [1] is no less than 10.50. For the same molecule, in assay [2], the IC50 is 25.1 to 158 nM.
As for `CNCCn1cc(-c2cnc3ccc(-c4nc[nH]c4-c4cc(Cl)c(F)cc4F)nc3c2)cn1` [Compound 7-4, 2-(4-(6-(5-(5-chloro-2,4-difluorophenyl)-1H-imidazol-4-yl)-1,5-naphthyridin-3-yl)-1H-pyrazol-1-yl)-N-methylethan-1-amine], in assay [1], the pKi is 9.50 to 10.40. In addition, the IC50 in assay [2] was 25.1 to 158 nM.
On to `Fc1ccc(Cl)cc1-c1n[nH]cc1-c1ccc2ncc(NC3CCCNC3)cc2n1` (centres unmarked) [Compound 1-25, 6-[3-(5-chloro-2-fluoro-phenyl)-1H-pyrazol-4-yl]-N-(3-piperidyl)-1,5-naphthyridin-3-amine], for which the negative logarithm of the Ki (pKi) in assay [1] is 8.50 to 9.40. The IC50 in assay [2] is 25.1 to 158 nM.
As to `NC1CCN(c2cnc3ccc(-c4c[nH]nc4-c4ccc(F)c(F)c4)nc3c2)C1` (centres unmarked) [Compound 8-9, 1-[6-[3-(3,4-difluorophenyl)-1H-pyrazol-4-yl]-1,5-naphthyridin-3-yl]pyrrolidin-3-amine], the negative logarithm of the Ki (pKi) in assay [1] is 8.50 to 9.40. For the same molecule, the IC50 in assay [2] was 25.1 to 158 nM.
Take `COC(=O)[C@H]1CN(c2cnc3ccc(-c4c[nH]nc4-c4cc(Cl)ccc4F)nc3c2)CCN1C` [Compound 1-65, methyl (2R)-4-[6-[3-(5-chloro-2-fluoro-phenyl)-1H-pyrazol-4-yl]-1,5-naphthyridin-3-yl]-1-methyl-piperazine-2-carboxylate]: in assay [1], the pKi was 8.50 to 9.40. Besides, the IC50 in assay [2] is 25.1 to 158 nM.
Regarding `CC(C)N1CCN(CCNc2cnc3ccc(-c4nc[nH]c4-c4ccc(F)c(F)c4)cc3c2)CC1` [Compound 23-4, 6-(5-(3,4-difluorophenyl)-1H-imidazol-4-yl)-N-(2-(4-isopropylpiperazin-1-yl)ethyl)quinolin-3-amine], the pKi in assay [1] is 7.50 to 8.40. The IC50 in assay [2] was 25.1 to 158 nM.
`O=C(NCc1ccccc1)[C@H]1CN(c2cnc3ccc(-c4c[nH]nc4-c4cc(Cl)ccc4F)nc3c2)CCN1` [Compound 1-67, (2R)-N-benzyl-4-[6-[3-(5-chloro-2-fluoro-phenyl)-1H-pyrazol-4-yl]-1,5-naphthyridin-3-yl]piperazine-2-carboxamide]: the pKi in assay [1] was 8.50 to 9.40. In addition, the IC50 in assay [2] is 25.1 to 158 nM.
Turning to `Fc1cc(F)c(-c2n[nH]cc2-c2ccc3ncc(-c4nc(C(F)(F)F)n5c4CNCC5)cc3n2)cc1Cl` [Compound 6-50, 2-[3-(5-chloro-2,4-difluoro-phenyl)-1H-pyrazol-4-yl]-7-[3-(trifluoromethyl)-5,6,7,8-tetrahydroimidazo[1,5-a]pyrazin-1-yl]-1,5-naphthyridine], in assay [1], the pKi is 7.50 to 8.40. Besides, in assay [2], the IC50 was 25.1 to 158 nM.
Taken in the same sequence, the figures for `Fc1ccc(Cl)cc1-c1n[nH]cc1-c1ccc2ncc(-c3nc(C(F)(F)F)n4c3CNCC4)cc2n1` [Compound 1-119, 2-[3-(5-chloro-2-fluoro-phenyl)-1H-pyrazol-4-yl]-7-[3-(trifluoromethyl)-5,6,7,8-tetrahydroimidazo[1,5-a]pyrazin-1-yl]-1,5-naphthyridine] were 8.50 to 9.40 and 25.1 to 158 nM.
